Laboratory results reported in patent US12167744B2, “Nicotine liquid formulations for aerosol devices and methods thereof” (JUUL Labs, Inc., priority 2013, dated 2024).

Experiments:
[1] = thermal decomposition of the acid; cited from earlier work
[2] = nicotine:tartaric acid 1:2; in PG or VG or any mixture of PG and VG at ambient conditions
Excerpt: In some embodiments, acids that have poor solubility in the composition constituents are inappropriate for use in certain embodiments of the compositions herein. […] As used herein, weight percentage (w/w) refers to the weight of the individual component over the weight of the total formulation.

For `O=C(O)CC(O)(CC(=O)O)C(=O)O` [citric acid], the decomposition temperature [1] is listed as 175 °C.

For `O=C(O)CC(O)C(=O)O` (stereo not drawn) [malic acid], the decomposition temperature [1] is given as 150 °C.

For `CN1CCCC1c1cccnc1.O=C(O)C(O)C(O)C(=O)O` (stereo not drawn) [nicotine bitartrate], the “concentration at which no solution is produced” value [2] was < 0.5 % (w/w) nicotine.
